Columns and labels:
Type in all cases: cell-based, human
[1] = system: IL-6R; assay: IL-6R level in HepG-2 cells; details: for IL-6R ± SE: HepG-2, at IC50 concentrations; for IL-6R ± SE / IL-6 ±SE: control 44.10; for IL-6 ±SE: raw data, HepG2
Description: (§1) All synthesized compounds were tested at their cytotoxic concentrations in HepG-2 cells for analysis of gene expression levels of apoptotic markers caspase-3, caspase-9, TNF-α, and IL-6 proteins, and only two active compounds were tested for BAX and Bcl-2 proteins.
(§2) through Flow cytometric analysis.
(§3) Pellets were collected again and incubated with
(§4) Total RNA from vehicle-treated
(§5) (Thermo Scientific, USA).
(§6) All experiments were performed in […]

[2] = system: K-562; assay: MTT anti-proliferative assay, K-562; details: Homo sapiens, K562; for viability at 0.195 µmol / cytotoxicity at 0.195 µmol: K-562, 0.195 umol; for cytotoxicity at 0.195 µmol / cytotoxicity at 0.391 µmol / cytotoxicity at 0.781 µmol / cytotoxicity at 1.563 µmol / cytotoxicity at 3.125 µmol / cytotoxicity at 6.25 µmol / cytotoxicity at 12.5 µmol / cytotoxicity at 25 µmol: read-out: Toxicity %; for viability at 0.391 µmol / cytotoxicity at 0.391 µmol: K-562, 0.391 umol; for viability at 0.781 µmol / cytotoxicity at 0.781 µmol: K-562, 0.781 umol; for viability at 1.563 µmol / cytotoxicity at 1.563 µmol: K-562, 1.563 umol; for viability at 3.125 µmol / cytotoxicity at 3.125 µmol: K-562, 3.125 umol; for viability at 6.25 µmol / cytotoxicity at 6.25 µmol: K-562, 6.25 umol; for viability at 12.5 µmol / cytotoxicity at 12.5 µmol: K-562, 12.5 umol; for viability at 25 µmol / cytotoxicity at 25 µmol: K-562, 25 umol; for IC50: MTT, K-562, read-out: Cytotoxicity against cancer cells IC50 K-562
[3] = system: TNF-alpha; assay: TNF-alpha level in HepG-2 cells; details: control 43.48
Description: as §1, §2, §3, §4, §5, §6

[4] = system: caspase-9; assay: Caspase-9 expression level in HepG-2 cells; details: for Caspase-9 ± SE: HepG-2, at IC50 concentrations, control 11.01; for caspase-9 expression level, fold increase: HepG-2, vs control cells
Description: as §1, §2, §3, §4, §5, §6

[5] = system: HepG-2; assay: MTT anti-proliferative assay, HepG-2; details: Homo sapiens, HepG2; for viability at 0.195 µg/mL / cytotoxicity at 0.195 µg/mL: HepG-2, 0.195 ug/ml; for cytotoxicity at 0.195 µg/mL / cytotoxicity at 0.391 µg/mL / cytotoxicity at 0.781 µg/mL / cytotoxicity at 1.563 µg/mL / cytotoxicity at 3.125 µg/mL / cytotoxicity at 6.25 µg/mL / cytotoxicity at 12.5 µg/mL / cytotoxicity at 25 µg/mL: read-out: Toxicity %; for viability at 0.391 µg/mL / cytotoxicity at 0.391 µg/mL: HepG-2, 0.391 ug/ml; for viability at 0.781 µg/mL / cytotoxicity at 0.781 µg/mL: HepG-2, 0.781 ug/ml; for viability at 1.563 µg/mL / cytotoxicity at 1.563 µg/mL: HepG-2, 1.563 ug/ml; for viability at 3.125 µg/mL / cytotoxicity at 3.125 µg/mL: HepG-2, 3.125 ug/ml; for viability at 6.25 µg/mL / cytotoxicity at 6.25 µg/mL: HepG-2, 6.25 ug/ml; for viability at 12.5 µg/mL / cytotoxicity at 12.5 µg/mL: HepG-2, 12.5 ug/ml; for viability at 25 µg/mL / cytotoxicity at 25 µg/mL: HepG-2, 25 ug/ml; for IC50: MTT, HepG-2, read-out: Cytotoxicity against cancer cells IC50 HepG-2
[6] = system: MCF-7; assay: MTT anti-proliferative assay, MCF-7; details: Homo sapiens, MCF7; for viability at 0.195 µmol / cytotoxicity at 0.195 µmol: MCF-7, 0.195 umol; for cytotoxicity at 0.195 µmol / cytotoxicity at 0.391 µmol / cytotoxicity at 0.781 µmol / cytotoxicity at 1.563 µmol / cytotoxicity at 3.125 µmol / cytotoxicity at 6.25 µmol / cytotoxicity at 12.5 µmol / cytotoxicity at 25 µmol: read-out: Toxicity %; for viability at 0.391 µmol / cytotoxicity at 0.391 µmol: MCF-7, 0.391 umol; for viability at 0.781 µmol / cytotoxicity at 0.781 µmol: MCF-7, 0.781 umol; for viability at 1.563 µmol / cytotoxicity at 1.563 µmol: MCF-7, 1.563 umol; for viability at 3.125 µmol / cytotoxicity at 3.125 µmol: MCF-7, 3.125 umol; for viability at 6.25 µmol / cytotoxicity at 6.25 µmol: MCF-7, 6.25 umol; for viability at 12.5 µmol / cytotoxicity at 12.5 µmol: MCF-7, 12.5 umol; for viability at 25 µmol / cytotoxicity at 25 µmol: MCF-7, 25 umol; for IC50: MTT, MCF-7, read-out: Cytotoxicity against cancer cells IC50 MCF-7
[7] = system: caspase-3; assay: Caspase-3 expression level in HepG-2 cells; details: for Caspase-3 ± SE: HepG-2, at IC50 concentrations, control 0.460; for caspase-3 expression level, fold increase: HepG-2, vs control cells
Description: as §1, §2, §3, §4, §5, §6

## O=C(Cn1cnc2cc(Cl)ccc2c1=O)Nc1ccc(Cl)cc1 [8c, 2-(7-Chloro-4-oxoquinazolin-3(4H)-yl)-N-(4-chlorophenyl)acetamide]
[1]
  IL-6R ± SE: 14.73 ± 1.06 ng/L
  IL-6 ±SE: 16.64 ng/L
[1]; HepG-2, control 44.10%
  IL-6R protein level: 14.73 ng/L
[2]
  viability at 0.195 µmol: 80.8%
  cytotoxicity at 0.195 µmol: 19.2%
  viability at 0.391 µmol: 60.1%
  cytotoxicity at 0.391 µmol: 39.9%
  viability at 0.781 µmol: 34.4%
  cytotoxicity at 0.781 µmol: 65.6%
  viability at 1.563 µmol: 19.5%
  cytotoxicity at 1.563 µmol: 80.5%
  viability at 3.125 µmol: 13%
  cytotoxicity at 3.125 µmol: 87%
  viability at 6.25 µmol: 9.89%
  cytotoxicity at 6.25 µmol: 90.1%
  viability at 12.5 µmol: 8.25%
  cytotoxicity at 12.5 µmol: 91.7%
  viability at 25 µmol: 6.53%
  cytotoxicity at 25 µmol: 93.5%
  IC50: 544.4 ± 3.2 nM
[3]; HepG-2, at IC50 concentrations
  TNF-alpha ±SE: 9.13 ± 0.37 ng/L
[3]; raw data, HepG2
  TNF-alpha ±SE: 10.2 ng/L
[4]
  Caspase-9 ± SE: 26.98 ± 1.30 ng/L
  caspase-9 expression level, fold increase: 2.5 fold
[4]; listed as R1
  Caspase-9 ± SE: 26.98 ng/L
[5]
  viability at 0.195 µg/mL: 89.2%
  cytotoxicity at 0.195 µg/mL: 10.8%
  viability at 0.391 µg/mL: 65.9%
  cytotoxicity at 0.391 µg/mL: 34.1%
  viability at 0.781 µg/mL: 47.8%
  cytotoxicity at 0.781 µg/mL: 52.2%
  viability at 1.563 µg/mL: 29.9%
  cytotoxicity at 1.563 µg/mL: 70.1%
  viability at 3.125 µg/mL: 15.9%
  cytotoxicity at 3.125 µg/mL: 84.1%
  viability at 6.25 µg/mL: 11%
  cytotoxicity at 6.25 µg/mL: 89%
  viability at 12.5 µg/mL: 7.66%
  cytotoxicity at 12.5 µg/mL: 92.3%
  viability at 25 µg/mL: 6.7%
  cytotoxicity at 25 µg/mL: 93.3%
  IC50: 734.4 ± 2.3 nM
[6]
  viability at 0.195 µmol: 46.1%
  cytotoxicity at 0.195 µmol: 53.9%
  viability at 0.391 µmol: 32.9%
  cytotoxicity at 0.391 µmol: 67.1%
  viability at 0.781 µmol: 20.3%
  cytotoxicity at 0.781 µmol: 79.7%
  viability at 1.563 µmol: 13.1%
  cytotoxicity at 1.563 µmol: 86.9%
  viability at 3.125 µmol: 10.2%
  cytotoxicity at 3.125 µmol: 89.8%
  viability at 6.25 µmol: 8.44%
  cytotoxicity at 6.25 µmol: 91.6%
  viability at 12.5 µmol: 8.05%
  cytotoxicity at 12.5 µmol: 92%
  viability at 25 µmol: 6.64%
  cytotoxicity at 25 µmol: 93.4%
  IC50: 188 ± 2.6 nM
[7]
  Caspase-3 ± SE: 1.25 ± 0.090 ng/mL
  caspase-3 expression level, fold increase: 2.72 fold
[7]; listed as R1
  Caspase-3 ± SE: 1.25 ng/mL

## O=C(Cn1cnc2cc([N+](=O)[O-])ccc2c1=O)Nc1ccc(F)c(Cl)c1 [9e, N-(3-Chloro-4-fluorophenyl)-2-(7-nitro-4-oxoquinazolin-3(4H)-yl)acetamide]
[1]
  IL-6R ± SE: 25.25 ± 0.16 ng/L
  IL-6 ±SE: 11.93 ng/L
[2]
  viability at 0.195 µmol: 60.6%
  cytotoxicity at 0.195 µmol: 39.4%
  viability at 0.391 µmol: 47%
  cytotoxicity at 0.391 µmol: 53%
  viability at 0.781 µmol: 26.6%
  cytotoxicity at 0.781 µmol: 73.4%
  viability at 1.563 µmol: 19%
  cytotoxicity at 1.563 µmol: 81%
  viability at 3.125 µmol: 13.7%
  cytotoxicity at 3.125 µmol: 86.3%
  viability at 6.25 µmol: 10.8%
  cytotoxicity at 6.25 µmol: 89.2%
  viability at 12.5 µmol: 8.13%
  cytotoxicity at 12.5 µmol: 91.9%
  viability at 25 µmol: 6.53%
  cytotoxicity at 25 µmol: 93.5%
  IC50: 346.9 ± 2.9 nM
[3]; HepG-2, at IC50 concentrations
  TNF-alpha ±SE: 34.27 ± 1.94 ng/L
[3]; raw data, HepG2
  TNF-alpha ±SE: 32.07 ng/L
[4]
  Caspase-9 ± SE: 25.20 ± 1.27 ng/L
  caspase-9 expression level, fold increase: 2.29 fold
[4]; listed as N4
  Caspase-9 ± SE: 25.20 ng/L
[5]
  viability at 0.195 µg/mL: 87.5%
  cytotoxicity at 0.195 µg/mL: 12.5%
  viability at 0.391 µg/mL: 63.9%
  cytotoxicity at 0.391 µg/mL: 36.1%
  viability at 0.781 µg/mL: 55.2%
  cytotoxicity at 0.781 µg/mL: 44.8%
  viability at 1.563 µg/mL: 49.6%
  cytotoxicity at 1.563 µg/mL: 50.4%
  viability at 3.125 µg/mL: 25.9%
  cytotoxicity at 3.125 µg/mL: 74.1%
  viability at 6.25 µg/mL: 16.3%
  cytotoxicity at 6.25 µg/mL: 83.7%
  viability at 12.5 µg/mL: 8.39%
  cytotoxicity at 12.5 µg/mL: 91.6%
  viability at 25 µg/mL: 6.85%
  cytotoxicity at 25 µg/mL: 93.2%
  IC50: 1510 ± 2 nM
[6]
  viability at 0.195 µmol: 54.8%
  cytotoxicity at 0.195 µmol: 45.2%
  viability at 0.391 µmol: 29.1%
  cytotoxicity at 0.391 µmol: 70.9%
  viability at 0.781 µmol: 20.9%
  cytotoxicity at 0.781 µmol: 79.1%
  viability at 1.563 µmol: 13.7%
  cytotoxicity at 1.563 µmol: 86.3%
  viability at 3.125 µmol: 9.89%
  cytotoxicity at 3.125 µmol: 90.1%
  viability at 6.25 µmol: 9.23%
  cytotoxicity at 6.25 µmol: 90.8%
  viability at 12.5 µmol: 8.22%
  cytotoxicity at 12.5 µmol: 91.8%
  viability at 25 µmol: 6.51%
  cytotoxicity at 25 µmol: 93.5%
  IC50: 231.4 ± 2.3 nM
[7]
  Caspase-3 ± SE: 0.77 ± 0.069 ng/mL
  caspase-3 expression level, fold increase: 1.6 fold
[7]; listed as N4
  Caspase-3 ± SE: 0.77 ng/mL

Source: publication PMC12377202, “Design, synthesis, and cytotoxic evaluation of quinazoline-based derivatives as VEGER-2 inhibitors: comparative study against EGFR kinase activity, induction of apoptosis, and molecular docking study” (RSC Advances, 2025)
